Assay results from ChEMBL document CHEMBL1201862, “PubChem BioAssay data set” (2004).
Active and inactive are the calls of the source.

Experiments:
[1] = molecular target: T1, Short transient receptor potential channel 4 (Mus musculus, UniProt Q9QUQ5); assay: calcium entry via TRPC4 opening agents – cell-based, HEK293 TRPC4/mu-opioid, Fluo-4 calcium, dose response (AID 434937); assay type: functional
T1 sequence (Q9QUQ5 whole entry): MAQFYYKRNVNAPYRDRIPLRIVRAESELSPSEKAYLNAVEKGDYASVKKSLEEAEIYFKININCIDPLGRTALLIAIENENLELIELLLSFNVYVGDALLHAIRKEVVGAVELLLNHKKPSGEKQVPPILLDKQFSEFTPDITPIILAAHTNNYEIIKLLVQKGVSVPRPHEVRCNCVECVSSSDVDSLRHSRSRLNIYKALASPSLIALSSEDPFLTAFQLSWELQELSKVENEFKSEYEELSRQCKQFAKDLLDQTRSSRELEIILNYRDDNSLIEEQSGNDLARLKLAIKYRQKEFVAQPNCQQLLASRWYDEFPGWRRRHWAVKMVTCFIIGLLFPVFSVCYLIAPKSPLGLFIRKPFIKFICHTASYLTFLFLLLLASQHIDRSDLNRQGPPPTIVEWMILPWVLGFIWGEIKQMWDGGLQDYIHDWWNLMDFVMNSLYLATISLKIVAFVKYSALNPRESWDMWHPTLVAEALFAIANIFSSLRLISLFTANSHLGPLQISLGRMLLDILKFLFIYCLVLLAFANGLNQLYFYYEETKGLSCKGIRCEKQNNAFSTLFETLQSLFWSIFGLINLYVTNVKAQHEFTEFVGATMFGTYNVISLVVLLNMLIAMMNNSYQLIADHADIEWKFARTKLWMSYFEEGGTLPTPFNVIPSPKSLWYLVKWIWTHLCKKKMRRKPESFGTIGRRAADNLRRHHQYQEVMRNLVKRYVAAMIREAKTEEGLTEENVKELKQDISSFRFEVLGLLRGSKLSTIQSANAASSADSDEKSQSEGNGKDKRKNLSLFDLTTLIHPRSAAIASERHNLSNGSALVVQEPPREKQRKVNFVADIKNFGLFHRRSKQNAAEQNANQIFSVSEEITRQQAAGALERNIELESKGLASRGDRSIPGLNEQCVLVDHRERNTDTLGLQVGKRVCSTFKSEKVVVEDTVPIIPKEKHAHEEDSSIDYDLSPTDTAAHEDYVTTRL

[2] = THP-1 cell cytotoxicity, dose response, cytotoxicity control for non-replicating M. tuberculosis project (AID 489025); assay type: functional
[3] = HepG2 cell cytotoxicity, dose response, cytotoxicity control for non-replicating M. tuberculosis project (AID 489018); assay type: functional; settings: Mycobacterium tuberculosis
cells = assay type: functional
[4] = Vero E6 cell cytotoxicity, dose response, cytotoxicity control for non-replicating M. tuberculosis project, secondary assay (AID 492998); assay type: functional, VeroE6; settings: Vero C1008
[5] = molecular target: Voltage-dependent T-type calcium channel subunit alpha-1H (Homo sapiens, UniProt O95180); assay type: functional;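 also: channel activity triggered by adding a high calcium stimulation buffer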
Sequence of Voltage-dependent T-type calcium channel subunit alpha-1H (O95180 whole entry): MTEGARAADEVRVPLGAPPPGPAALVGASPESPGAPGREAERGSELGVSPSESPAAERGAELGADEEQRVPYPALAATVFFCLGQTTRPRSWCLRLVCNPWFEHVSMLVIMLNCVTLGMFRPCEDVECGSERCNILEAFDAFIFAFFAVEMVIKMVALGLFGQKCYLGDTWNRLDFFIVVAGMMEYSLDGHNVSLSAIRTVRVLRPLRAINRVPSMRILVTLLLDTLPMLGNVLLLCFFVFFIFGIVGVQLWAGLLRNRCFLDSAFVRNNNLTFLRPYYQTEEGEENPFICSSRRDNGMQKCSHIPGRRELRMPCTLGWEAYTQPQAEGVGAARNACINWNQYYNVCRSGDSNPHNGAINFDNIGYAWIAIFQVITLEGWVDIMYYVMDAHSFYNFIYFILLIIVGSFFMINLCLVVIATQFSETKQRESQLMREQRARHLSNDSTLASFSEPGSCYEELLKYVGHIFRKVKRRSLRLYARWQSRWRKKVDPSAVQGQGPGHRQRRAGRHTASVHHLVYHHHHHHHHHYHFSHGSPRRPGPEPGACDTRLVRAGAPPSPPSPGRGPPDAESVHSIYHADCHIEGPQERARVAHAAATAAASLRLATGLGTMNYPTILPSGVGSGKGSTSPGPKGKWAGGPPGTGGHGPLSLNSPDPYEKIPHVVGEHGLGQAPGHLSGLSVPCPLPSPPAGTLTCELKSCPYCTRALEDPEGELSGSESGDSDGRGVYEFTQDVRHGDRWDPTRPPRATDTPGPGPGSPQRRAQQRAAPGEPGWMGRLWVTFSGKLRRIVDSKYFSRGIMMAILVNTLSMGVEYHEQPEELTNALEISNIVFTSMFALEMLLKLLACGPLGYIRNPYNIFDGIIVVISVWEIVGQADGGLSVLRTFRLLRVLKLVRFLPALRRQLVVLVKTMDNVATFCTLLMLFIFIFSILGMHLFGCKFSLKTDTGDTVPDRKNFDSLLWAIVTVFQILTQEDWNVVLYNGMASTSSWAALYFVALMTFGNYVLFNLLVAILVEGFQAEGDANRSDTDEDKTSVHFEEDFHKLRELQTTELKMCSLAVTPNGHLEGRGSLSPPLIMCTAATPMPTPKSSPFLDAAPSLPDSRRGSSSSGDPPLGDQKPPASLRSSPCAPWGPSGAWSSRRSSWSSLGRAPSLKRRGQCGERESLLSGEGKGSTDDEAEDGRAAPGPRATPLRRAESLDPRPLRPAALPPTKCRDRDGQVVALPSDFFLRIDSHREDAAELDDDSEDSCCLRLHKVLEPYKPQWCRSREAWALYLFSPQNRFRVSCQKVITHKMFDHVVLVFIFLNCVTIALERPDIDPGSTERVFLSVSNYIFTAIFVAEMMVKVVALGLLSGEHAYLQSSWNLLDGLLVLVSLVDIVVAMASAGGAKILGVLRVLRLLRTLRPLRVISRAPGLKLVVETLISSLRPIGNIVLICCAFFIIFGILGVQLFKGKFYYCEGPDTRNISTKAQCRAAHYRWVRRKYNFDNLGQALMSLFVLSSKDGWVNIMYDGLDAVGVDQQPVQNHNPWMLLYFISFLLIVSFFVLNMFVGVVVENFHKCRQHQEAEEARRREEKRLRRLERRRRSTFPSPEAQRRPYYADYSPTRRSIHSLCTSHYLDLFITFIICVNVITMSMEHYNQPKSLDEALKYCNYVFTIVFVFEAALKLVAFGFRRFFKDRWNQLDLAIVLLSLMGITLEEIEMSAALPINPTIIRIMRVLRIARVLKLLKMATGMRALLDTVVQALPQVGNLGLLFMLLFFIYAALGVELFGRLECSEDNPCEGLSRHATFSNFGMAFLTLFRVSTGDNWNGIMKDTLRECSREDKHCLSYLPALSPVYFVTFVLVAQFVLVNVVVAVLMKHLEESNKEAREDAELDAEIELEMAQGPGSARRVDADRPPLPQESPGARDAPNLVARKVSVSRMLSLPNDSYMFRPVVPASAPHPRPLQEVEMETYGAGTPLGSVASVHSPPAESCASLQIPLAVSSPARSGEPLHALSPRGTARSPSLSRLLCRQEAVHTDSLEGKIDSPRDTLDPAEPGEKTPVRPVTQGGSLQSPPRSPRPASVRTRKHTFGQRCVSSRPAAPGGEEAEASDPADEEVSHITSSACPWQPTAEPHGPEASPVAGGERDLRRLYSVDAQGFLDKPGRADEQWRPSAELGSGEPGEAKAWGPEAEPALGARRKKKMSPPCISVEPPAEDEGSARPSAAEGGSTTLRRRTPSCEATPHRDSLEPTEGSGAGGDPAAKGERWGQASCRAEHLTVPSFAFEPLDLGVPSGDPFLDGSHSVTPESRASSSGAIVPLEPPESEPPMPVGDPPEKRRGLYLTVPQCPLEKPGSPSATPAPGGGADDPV

[6] = molecular target: DNA dC->dU-editing enzyme APOBEC-3G (Homo sapiens, UniProt Q9HC16); assay type: functional;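 also: Dose-response counterscreen measuring inhibition of APOBEC3G DNA deaminase activity, run while confirming APOBEC3A inhibitors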
Sequence of DNA dC->dU-editing enzyme APOBEC-3G (Q9HC16 whole entry): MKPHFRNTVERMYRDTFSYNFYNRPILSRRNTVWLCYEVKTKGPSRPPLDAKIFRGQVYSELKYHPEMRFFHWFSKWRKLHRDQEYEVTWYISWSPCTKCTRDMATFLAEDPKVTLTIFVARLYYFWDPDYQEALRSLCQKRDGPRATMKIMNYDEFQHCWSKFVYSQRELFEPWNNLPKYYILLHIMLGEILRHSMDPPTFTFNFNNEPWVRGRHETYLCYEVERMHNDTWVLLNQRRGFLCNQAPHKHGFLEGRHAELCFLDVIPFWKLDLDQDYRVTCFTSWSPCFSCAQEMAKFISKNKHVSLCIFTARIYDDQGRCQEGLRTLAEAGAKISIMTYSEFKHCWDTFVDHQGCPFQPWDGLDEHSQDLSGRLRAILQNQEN

[7] = molecular target: Polyadenylate-binding protein 1 (Homo sapiens, UniProt P11940); assay: blockers of PABP interaction with poly(A) – biochemical, fluorescence polarization, […] (AID 2014)
Sequence of Polyadenylate-binding protein 1 (P11940 whole entry): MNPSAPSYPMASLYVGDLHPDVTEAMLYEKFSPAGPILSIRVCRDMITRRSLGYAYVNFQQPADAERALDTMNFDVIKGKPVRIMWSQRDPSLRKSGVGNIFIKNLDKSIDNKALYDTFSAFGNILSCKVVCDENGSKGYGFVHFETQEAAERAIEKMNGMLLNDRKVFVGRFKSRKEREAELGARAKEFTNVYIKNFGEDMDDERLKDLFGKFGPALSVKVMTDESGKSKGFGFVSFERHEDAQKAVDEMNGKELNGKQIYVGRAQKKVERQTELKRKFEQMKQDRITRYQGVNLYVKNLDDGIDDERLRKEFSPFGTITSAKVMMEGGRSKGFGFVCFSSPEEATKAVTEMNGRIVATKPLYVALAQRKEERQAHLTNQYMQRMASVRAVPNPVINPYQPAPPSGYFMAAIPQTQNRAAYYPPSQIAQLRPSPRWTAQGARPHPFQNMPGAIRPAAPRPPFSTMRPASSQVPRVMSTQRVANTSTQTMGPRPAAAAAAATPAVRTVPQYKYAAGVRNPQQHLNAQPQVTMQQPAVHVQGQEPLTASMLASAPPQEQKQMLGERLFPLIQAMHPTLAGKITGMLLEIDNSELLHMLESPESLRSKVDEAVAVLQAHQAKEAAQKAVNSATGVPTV

[8] = molecular target: Eukaryotic translation initiation factor 4H (Homo sapiens, UniProt Q15056); assay: eIF4H binding inhibition – biochemical, uHTS, fluorescence polarization, translation initiation inhibitor project, primary screen (AID 2012)
[9] = molecular target: DNA dC->dU-editing enzyme APOBEC-3A (Homo sapiens, UniProt P31941); assay: Dose Response confirmation of small molecule APOBEC3A DNA Deaminase Inhibitors via a fluorescence-based single-stranded DNA deaminase assay. [Related pubchem assays (depositor defined):AID493011, AID493024]; assay type: functional
Sequence of DNA dC->dU-editing enzyme APOBEC-3A (P31941 whole entry): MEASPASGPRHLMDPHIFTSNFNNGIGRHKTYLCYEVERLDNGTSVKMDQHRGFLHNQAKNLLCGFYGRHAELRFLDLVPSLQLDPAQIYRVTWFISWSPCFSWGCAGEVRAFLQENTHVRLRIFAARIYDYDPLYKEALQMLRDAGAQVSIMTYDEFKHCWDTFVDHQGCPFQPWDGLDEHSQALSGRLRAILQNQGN

HeLa = assay: ATP-based viability loss in HeLa cells – cell-based, CellTiter-Glo luminescence, cherry-pick samples, cytotoxicity control for MITF activator project, dose response (AID 540259); assay type: functional; settings: Homo sapiens
[10] = molecular target: Beta-2 adrenergic receptor (Homo sapiens, UniProt P07550); assay: ADRB2 activation measured by internalization – cell-based, FAP fluorogen, flow cytometry, cherry pick 1, dose response (AID 588763); assay type: functional
Sequence of Beta-2 adrenergic receptor (P07550 whole entry): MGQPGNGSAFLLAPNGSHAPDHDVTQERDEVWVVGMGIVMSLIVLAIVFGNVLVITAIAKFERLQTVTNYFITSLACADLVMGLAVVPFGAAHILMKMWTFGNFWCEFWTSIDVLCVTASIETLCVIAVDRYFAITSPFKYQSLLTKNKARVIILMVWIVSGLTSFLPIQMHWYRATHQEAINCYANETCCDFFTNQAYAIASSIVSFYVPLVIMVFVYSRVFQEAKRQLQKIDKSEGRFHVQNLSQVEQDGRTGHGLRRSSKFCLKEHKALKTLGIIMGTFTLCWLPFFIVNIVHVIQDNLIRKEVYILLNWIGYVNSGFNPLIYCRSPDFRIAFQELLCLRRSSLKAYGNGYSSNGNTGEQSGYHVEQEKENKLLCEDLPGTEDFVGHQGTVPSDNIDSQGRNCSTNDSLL

Hexokinase = molecular target: T2, Hexokinase (Trypanosoma brucei, UniProt Q38C41); assay: Confirmation assay for inhibitors of Trypanosoma brucei hexokinase 1-Analogue-first series. [Related pubchem assays (depositor defined):AID1430, AID1632, AID2516, AID2560, AID2579, AID2600, AID449725, AID492951]; assay type: functional
T2 sequence (Q38C41 whole entry): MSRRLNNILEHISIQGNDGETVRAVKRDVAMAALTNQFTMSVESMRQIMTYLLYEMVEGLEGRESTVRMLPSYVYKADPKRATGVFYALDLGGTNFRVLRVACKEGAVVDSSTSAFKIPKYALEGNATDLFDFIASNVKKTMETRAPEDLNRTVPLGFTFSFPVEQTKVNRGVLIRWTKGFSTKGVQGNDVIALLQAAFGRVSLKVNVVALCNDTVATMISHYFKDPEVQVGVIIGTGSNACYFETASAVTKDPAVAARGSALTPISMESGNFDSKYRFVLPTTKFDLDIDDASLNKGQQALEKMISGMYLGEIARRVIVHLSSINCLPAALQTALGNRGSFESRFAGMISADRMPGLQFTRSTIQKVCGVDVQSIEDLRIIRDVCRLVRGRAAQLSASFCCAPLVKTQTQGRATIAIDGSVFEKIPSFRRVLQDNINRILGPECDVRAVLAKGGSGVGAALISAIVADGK

[11] = Luminescence Cell-Based Dose Retest to Confirm Inhibitors of Cancer Stem Cells. [Related pubchem assays (depositor defined):AID2717, AID2721]; assay type: functional; settings: Homo sapiens

SMILES: CCn1c(=O)cc(OCC(=O)NCCCN2CC(C)CC(C)C2)c2ccccc21 (configuration not stated)
- EC50 [1]: 0.473 µM (active)

SMILES: CN(C)c1c2ccccc2nc2c(F)c(F)c(F)c(F)c12
- CC50 [2]: 22.9 µM (active)
- CC50 [3]: > 20 µM (active)
- IC50 (cells): 17.7 µM (active)
- CC50 [4]: > 20 µM (active)

SMILES: O=C(NCc1ccc2c(c1)OCO2)c1ccc(CN2CCc3ccccc3C2)cc1
- EC50 [5]: 7.5 µM (active)

SMILES: COc1cc(/C=C/c2cccc[n+]2C)ccc1OCC(=O)Nc1ccccc1C
- IC50 [6]: 1.29 µM (active)
- IC50 [7]: 3.83 µM (active)
- IC50 [8]: > 100 µM (inactive)
- IC50 [9]: 1.56 µM (active)

SMILES: COc1ccccc1NC(=O)c1cc[n+](C)cc1
- IC50 [6]: 2.3 µM (active)
- IC50 [7]: 5.63 µM (active)
- IC50 [8]: 90.8 µM (active)
- IC50 [9]: 2.48 µM (active)

SMILES: COc1ccc(/C=C2\C(=O)NCC(=O)N2C)cc1
- IC50 [6]: 6.99 µM (active)
- IC50 [7]: 6.16 µM (active)
- IC50 [8]: > 100 µM (inactive)
- IC50 [9]: 2.81 µM (active)

SMILES: O=C(Nc1ccc2c(c1)CCC2)C1CCCN(c2ncccn2)C1 (configuration not stated)
- AC50 (HeLa): 104 µM (active)

SMILES: CCCNC(=O)Nc1nc2ccccc2s1
- AC50 (HeLa): 191 µM (active)

SMILES: Cc1ccc(CNC(=O)C[S+]([O-])Cc2nc(-c3ccccc3C)oc2C)cc1 (configuration not stated)
- EC50 [5]: 6 µM (active)

SMILES: CC1CC(C)CN(CCCNC(=O)c2csc3c2CCCCC3)C1 (configuration not stated)
- EC50 [1]: 4.73 µM (active)

SMILES: Cc1ccc(NC(=O)C[S+]([O-])Cc2nc(-c3ccc(C)cc3)oc2C)cc1 (configuration not stated)
- EC50 [5]: 2.45 µM (active)

SMILES: Cc1ccc(Sc2cc(N3CCOCC3)nc(-c3ccccc3)n2)cc1
- EC50 [10]: 4.82 µM (active)

SMILES: CC(CCc1ccccc1)NC(=O)CN1CCN(Cc2ccc(Cl)cc2)C1=O (configuration not stated)
- EC50 [5]: 4.5 µM (active)

SMILES: COc1ccc(C(C)=O)cc1COc1ccc(Cl)cc1Cl
- EC50 [10]: 2.67 µM (active)

SMILES: Cc1ccc(C(=O)Nc2cc(Cl)ccc2C(=O)O)c(C)c1
- IC50 (Hexokinase): > 25 µM (inactive)

SMILES: N#Cc1ccccc1NC(=O)Cn1sc2ccccc2c1=O
- IC50 (Hexokinase): 7.21 µM (active)

SMILES: COc1cc(OC)cc(-c2cc3cc(F)ccc3cn2)c1
- AC50 (HeLa): 50.6 µM (active)

SMILES: O=C(Cn1sc2ccccc2c1=O)N1CCOCC1
- IC50 (Hexokinase): > 25 µM (inactive)

SMILES: Brc1ccc(/C=N/Nc2ccccc2)cc1
- AC50 [11]: 3.98 µM (active)
- AC50 (HeLa): 65.5 µM (active)
